The record followed here is patent US11291630B2, “Gelling compositions for treating malignant tumours and/or preventing tumour recurrence” (Centre National de la Recherche Scientifique (CNRS), priority 2015, dated 2022).

The data set can be described thus: Measurement of gelation temperature by DSC and rheology (Example 1). The format is physicochemical. The note with it: addition of 0.5% 5-FU to gel P407/P188/Alginate (20/2/1) (FIG. 2). The protocol: The gelation temperature (Tgel) was determined by Differential Scanning calorimetry (DSC) and rheology.
By DSC: between 20-35 mg of the solution were sealed in aluminium pans and placed into the DSC instrument (DSC 1, Mettler Toledo). An empty aluminium pan (size: 40 μL) served as a reference sample. The instrument was equilibrated at 5° C. for 7 min prior to initiation of the scans. The sample was then heated to 40° C. at a heating rate of 5° C./min. Data analysis was performed with the software preinstalled in the instrument (STARe Software). The gelation temperature was determined as the small enthalpy change which was visible around at 10-12° C. above the big endothermic peak caused by micellization of the poloxamers, as already done in other studies (Nie et al, Int. J. Nanomedicine. 6 (2011) 151-166. doi:10.2147/IJN.S15057).
By rheology: a deformation was applied and varied between 0.01 to 100% at a fixed frequency of 1 Hz with a cone/plan mobile with an angle of 1°, a diameter of 50 mm and with a gap of 0.1 mm. The sample was left at room temperature for 1 hour, then approximately 750 μL was loaded on the pelletier plan which is submitted to a temperature increase. The viscoelastic moduli G′ and G″ are measured. The gelation temperature corresponds to the curve intersections.

Turning to `O=c1[nH]cc(F)c(=O)[nH]1` [Composition 5-FU, 5-Fluorouracil], the “increase of the gelation temperature” value amounted to 2 °C.
